Patent US8912180B2, “Heterocyclic compound” (Astellas Pharma Inc., priority 2010, dated 2014)
Structures can show the parent of a compound that is named as a salt.

Tests used:
Human PI3Kα = molecular target: T1, Human PI3Kα (Homo sapiens, UniProt P42336); test: PI3Kα enzyme inhibitory activity (Kinase-Glo Plus luminescence); format: biochemical; conditions: human PI3Kα 12 ng/well, phosphatidylinositol 0.2 μg/well, 37° C. 3 hours
T1 construct: purchased Millipore Corporation 14-602
Method: 2. PI3Kα Enzyme Inhibitory Activity
Human PI3Kα (12 ng/well, Millipore Corporation, Catalogue No. 14-602), phosphatidylinositol (0.2 μg/well), and the test compound were mixed in a 384-well plate in a reaction buffer (50 mM Hepes, 10 mM NaCl, 10 mM MgCl2, 2 mM EGTA, 2 mM DTT, pH 7.3) (total 10 μl), and incubated at 37° C. for 3 hours. After the reaction, 10 μL of a Kinase-Glo Plus reagent (Promega, Catalogue No. V3772) was added thereto, and a luminescence was measured with a luminometer.

IL-2 production = test: Rat in vivo IL-2 production inhibition test (Concanavalin A induced); conditions: 10 mg/kg oral, 2 hours before Concanavalin A 15 mg/kg iv; blood IL-2 at 3 hours, vs vehicle control; male LEW rats
Method: 3. Rat In Vivo IL-2 Production Inhibition Test
For the experiment, male LEW/CrlCrlj rats (Charles River Laboratories, Japan, Inc.) (6-week old, body weight 130 to 180 g) were used. The test compound was suspended in a 0.5% methyl cellulose solution and orally administered at 5 mL/kg. IL-2 production was induced by tail vein injection of Concanavalin A (Funakoshi Corporation, Catalogue No. L-1000) at a dose of 15 mg/kg.
The test was carried out according to the protocol shown below. At 2 hours or 16 hours before administration of Concanavalin A, the test compound was orally administered to rats. At 3 hours after administration of Concanavalin A, blood was collected. The IL-2 concentration in blood was quantified using an ELISA kit (R&D Systems, Inc., Catalogue No. DY502E). An inhibition rate was calculated from the amount of IL-2 produced in a group administered with the test compound with respect to the amount of the IL-2 produced in a control group administered with a vehicle.

[1] = system: Spleen cells prepared from male LEW/CrlCrlj rats (B cell proliferation); test: Rat B cell proliferation inhibition test (anti-rat IgM, [3H]thymidine); format: cell-based; conditions: anti-rat IgM 3 μg/well, 48 hours culture
Method: 4. Rat B Cell Proliferation Inhibition Test
Spleen cells (1.0×10^5 cells/well) prepared from male LEW/CrlCrlj rats (Charles River Laboratories, Japan, Inc.), mouse F(ab′)2 fragment anti-rat IgM (3 μg/well, SouthernBiotech Associates, Inc., Catalogue No. 3082-14) and the test compound dissolved in DMSO (final DMSO concentration 0.1%) were mixed in a 96-well plate using a 10% FCS-containing RPMI-1640 culture medium (total 200 μL). They were cultured in a CO2 incubator for 48 hours and [^3H]thymidine (925 GBq/mmol, Moravek Biochemicals, Inc., Catalogue No. MT6038) was added thereto at 0.037 MBq/well at 4 hours before completion of culture. Cells were harvested in a GF/C glass filter using a cell harvester, and a radioactivity on the filter was measured using a liquid scintillation counter.

human PI3Kδ enzyme = molecular target: T2, human PI3Kδ enzyme (Homo sapiens, UniProt O00329); test: PI3Kδ enzyme inhibitory activity (PI3-Kinase HTRF Assay kit); format: biochemical; conditions: human PI3Kδ 10 ng/well, ATP 30 μM, PIP2 10 μM, room temperature 30 minutes
T2 construct: purchased Millipore Corporation 14-604
Method: 1. PI3Kδ Enzyme Inhibitory Activity
For the experiment, a PI3-Kinase HTRF Assay kit (Millipore Corporation, Catalogue No. 33-016) and a human PI3Kδ enzyme (Millipore Corporation, Catalogue No. 14-604) were used. The measurement method was in accordance with the appended instructions. The overview thereof is as follows.
PI3Kδ (10 ng/well), phosphatidylinositol-4,5-bisphosphate (10 μM), ATP (30 μM), and the test compound were mixed in a 384-well plate (total 20 μL), and incubated at room temperature for 30 minutes. EDTA and biotinylated phosphatidylinositol-3,4,5-triphosphate were added thereto to stop the reaction. Thereafter, a Europium labeled anti-GST antibody, a GST bond GRP1 PH domain, and streptavidin-APC were added thereto, followed by incubation overnight. An HTRF ratio was measured using an HTRF plate reader.

T1 sequence (P42336 whole entry): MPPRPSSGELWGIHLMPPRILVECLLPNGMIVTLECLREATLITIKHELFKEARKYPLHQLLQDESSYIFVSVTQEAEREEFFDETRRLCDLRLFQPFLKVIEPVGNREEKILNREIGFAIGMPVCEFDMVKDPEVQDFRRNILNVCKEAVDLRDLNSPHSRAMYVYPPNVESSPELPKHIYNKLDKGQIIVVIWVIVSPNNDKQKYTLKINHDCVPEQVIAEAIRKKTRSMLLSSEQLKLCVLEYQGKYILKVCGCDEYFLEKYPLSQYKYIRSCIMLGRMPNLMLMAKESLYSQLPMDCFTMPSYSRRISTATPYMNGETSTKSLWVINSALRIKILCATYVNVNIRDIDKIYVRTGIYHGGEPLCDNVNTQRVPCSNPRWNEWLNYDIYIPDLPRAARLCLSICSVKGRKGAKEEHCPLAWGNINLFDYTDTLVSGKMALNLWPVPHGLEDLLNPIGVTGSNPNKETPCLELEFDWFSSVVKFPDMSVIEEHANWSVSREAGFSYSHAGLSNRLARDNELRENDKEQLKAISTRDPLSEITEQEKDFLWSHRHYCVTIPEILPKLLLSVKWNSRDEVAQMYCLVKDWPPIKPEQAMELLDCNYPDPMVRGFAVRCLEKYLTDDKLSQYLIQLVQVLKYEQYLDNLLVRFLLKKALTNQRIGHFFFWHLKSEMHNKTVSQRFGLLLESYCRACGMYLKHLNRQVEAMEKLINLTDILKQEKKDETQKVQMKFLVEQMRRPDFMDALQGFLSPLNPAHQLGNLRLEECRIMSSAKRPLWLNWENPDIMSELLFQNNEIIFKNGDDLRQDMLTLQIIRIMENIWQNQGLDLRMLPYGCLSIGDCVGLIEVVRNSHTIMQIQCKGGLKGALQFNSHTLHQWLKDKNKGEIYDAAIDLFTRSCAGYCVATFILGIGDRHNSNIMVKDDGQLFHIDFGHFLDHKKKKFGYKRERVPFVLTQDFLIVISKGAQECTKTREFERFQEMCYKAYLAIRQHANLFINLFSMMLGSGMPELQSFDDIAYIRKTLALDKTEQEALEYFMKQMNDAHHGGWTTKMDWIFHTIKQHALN
T1 sequence (P27986 whole entry partner): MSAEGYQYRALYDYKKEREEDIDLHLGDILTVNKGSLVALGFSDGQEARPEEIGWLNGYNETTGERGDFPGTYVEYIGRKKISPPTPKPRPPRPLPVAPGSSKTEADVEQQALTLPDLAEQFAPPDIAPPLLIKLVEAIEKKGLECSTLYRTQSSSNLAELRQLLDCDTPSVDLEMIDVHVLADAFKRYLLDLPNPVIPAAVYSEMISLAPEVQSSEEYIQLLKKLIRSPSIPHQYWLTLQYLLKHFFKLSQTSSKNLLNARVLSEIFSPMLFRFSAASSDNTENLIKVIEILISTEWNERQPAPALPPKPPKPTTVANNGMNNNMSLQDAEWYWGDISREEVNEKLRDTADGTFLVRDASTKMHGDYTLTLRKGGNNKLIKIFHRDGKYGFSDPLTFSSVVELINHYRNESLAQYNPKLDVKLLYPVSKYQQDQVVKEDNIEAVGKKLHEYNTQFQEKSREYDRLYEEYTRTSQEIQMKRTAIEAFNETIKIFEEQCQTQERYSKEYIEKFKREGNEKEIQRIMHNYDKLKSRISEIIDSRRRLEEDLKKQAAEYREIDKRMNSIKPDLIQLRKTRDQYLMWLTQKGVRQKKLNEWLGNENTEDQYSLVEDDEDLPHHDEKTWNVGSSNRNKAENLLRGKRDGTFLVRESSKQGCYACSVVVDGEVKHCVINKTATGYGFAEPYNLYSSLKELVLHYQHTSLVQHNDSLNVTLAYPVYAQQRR
T2 sequence (O00329 whole entry): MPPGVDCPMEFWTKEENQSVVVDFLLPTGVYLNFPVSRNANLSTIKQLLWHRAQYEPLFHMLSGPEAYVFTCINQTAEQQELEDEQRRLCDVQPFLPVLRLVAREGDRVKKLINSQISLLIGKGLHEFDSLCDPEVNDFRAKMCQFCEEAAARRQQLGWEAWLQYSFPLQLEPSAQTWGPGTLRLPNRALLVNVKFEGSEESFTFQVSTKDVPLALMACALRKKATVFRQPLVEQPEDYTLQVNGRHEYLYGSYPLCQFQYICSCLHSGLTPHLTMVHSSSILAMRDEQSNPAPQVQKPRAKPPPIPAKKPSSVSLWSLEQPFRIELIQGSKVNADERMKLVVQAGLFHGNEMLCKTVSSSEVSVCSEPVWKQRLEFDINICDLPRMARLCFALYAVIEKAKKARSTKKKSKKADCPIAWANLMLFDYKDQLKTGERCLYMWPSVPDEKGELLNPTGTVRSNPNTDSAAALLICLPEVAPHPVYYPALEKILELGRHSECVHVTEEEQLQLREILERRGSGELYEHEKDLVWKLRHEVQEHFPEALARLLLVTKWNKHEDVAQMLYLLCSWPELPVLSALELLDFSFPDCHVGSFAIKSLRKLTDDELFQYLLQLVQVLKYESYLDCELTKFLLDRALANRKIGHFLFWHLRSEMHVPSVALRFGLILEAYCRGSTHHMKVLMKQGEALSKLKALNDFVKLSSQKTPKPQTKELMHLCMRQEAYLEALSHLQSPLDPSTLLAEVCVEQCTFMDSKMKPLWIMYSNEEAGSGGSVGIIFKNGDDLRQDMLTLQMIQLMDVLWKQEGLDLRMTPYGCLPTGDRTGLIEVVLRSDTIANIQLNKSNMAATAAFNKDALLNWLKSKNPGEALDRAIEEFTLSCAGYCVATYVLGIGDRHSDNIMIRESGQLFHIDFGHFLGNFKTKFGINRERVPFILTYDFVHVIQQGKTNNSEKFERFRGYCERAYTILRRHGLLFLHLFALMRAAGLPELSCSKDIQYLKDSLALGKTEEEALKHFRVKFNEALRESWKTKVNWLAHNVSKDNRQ
T2 sequence (P27986 whole entry partner): as the sequence (P27986 whole entry partner) above

| SMILES | IC50 (Human PI3Kα) [nM] | IC50 (human PI3Kδ enzyme) [nM] | inhibitory activity (IL-2 production inhibition rate) (IL-2 production) [%] | IC50 [1] [nM] |
| --- | --- | --- | --- | --- |
| FC(F)c1nc2ccccc2n1-c1cc(N2CCOCC2)nc(NCC2CCN(C3CCOCC3)CC2)n1 [Example 10] | > 3000 | 5.8 | 77 | 2.9 |
| OCC1CCC(N2CCC(CNc3nc(N4CCOCC4)cc(-n4c(C(F)F)nc5ccccc54)n3)CC2)CC1 (stereo not drawn) [Example 29] | > 3000 | 45 | 51 |  |
| CC(=O)N1CCC(N2CCC(CNc3nc(N4CCOCC4)cc(-n4c(C(F)F)nc5ccccc54)n3)CC2)CC1 [Example 33] | > 3000 | 11 | 75 |  |
| CS(=O)(=O)N1CCC(N2CCC(CNc3nc(N4CCOCC4)cc(-n4c(C(F)F)nc5ccccc54)n3)CC2)CC1 [Example 34] | > 3000 | 14 | 72 |  |
| COC(=O)N[C@H]1CCN([C@H]2CC[C@H](Oc3cc(-n4c(C(F)F)nc5ccccc54)nc(N4CCOCC4)n3)CC2)C1=O [Example 87, methyl{(3S)-1-[trans-4-({6-[2-(difluoromethyl)-1H-benzimidazol-1-yl]-2-(morpholin-4-yl)pyrimidin-4-yl}oxy)cyclohexyl]-2-oxopyrrolidin-3-yl}carbamate] | > 10000 | 4.9 |  | 3.5 |
| CC(=O)N[C@H]1CCN([C@H]2CC[C@H](Oc3cc(-n4c(C(F)F)nc5ccccc54)nc(N4CCOCC4)n3)CC2)C1=O [Example 99] | > 10000 | 16 |  | 2.5 |
| Cc1ccc2nc(C(F)F)n(-c3cc(N4CCOCC4)nc(NC[C@H]4CC[C@H](N5CCOCC5)CC4)n3)c2c1 [Example 132] | > 10000 | 12 |  | 1.5 |
| O=C(CNC1CCOCC1)N[C@H]1CC[C@H](Oc2cc(-n3c(C(F)F)nc4ccccc43)nc(N3CCOCC3)n2)CC1 [Example 136] | > 10000 | 4 |  | 1.7 |
| CC1(NCC(=O)N[C@H]2CC[C@H](Oc3cc(-n4c(C(F)F)nc5ccccc54)nc(N4CCOCC4)n3)CC2)CC1 [Example 137] | > 10000 | 5.2 |  | 4.6 |
| FC(F)c1nc2ccccc2n1-c1cc(N[C@H]2C[C@@H]3C[C@H](N4CCOCC4)C[C@@H]3C2)nc(N2CCOCC2)n1 [Example 195] | > 10000 | 4.1 |  | 3 |
| CN(CC(=O)NC1CCC(Oc2cc(-n3c(C(F)F)nc4ccccc43)nc(N3CCOCC3)n2)CC1)C1CCC1 (stereo not drawn) [Example 196] | > 10000 | 4.8 |  | 3.6 |
| NC1(C(=O)N[C@H]2CC[C@H](Oc3cc(-n4c(C(F)F)nc5ccccc54)nc(N4CCOCC4)n3)CC2)CCC1 [Example 215] | > 10000 | 13 |  | 6.7 |
| NC1(C(=O)N[C@H]2CC[C@H](Oc3cc(-n4c(C(F)F)nc5ccccc54)nc(N4CCOCC4)n3)CC2)CCCC1 [Example 216] | > 10000 | 13 |  | 5.7 |
| COC(=O)N[C@@H]1CCN([C@H]2CC[C@H](Oc3cc(-n4c(C(F)F)nc5ccccc54)nc(N4CCOCC4)n3)CC2)C1=O [Example 389] | > 10000 | 11 |  | 4.4 |
| CCOC(=O)N[C@@H]1CCN([C@H]2CC[C@H](Oc3cc(-n4c(C(F)F)nc5ccccc54)nc(N4CCOCC4)n3)CC2)C1=O [Example 423] | > 10000 | 24 |  | 3.1 |

Continued, in another order:

| IC50 (Human PI3Kα) [nM] | IC50 (human PI3Kδ enzyme) [nM] | SMILES | inhibitory activity (IL-2 production inhibition rate) (IL-2 production) [%] | IC50 [1] [nM] |
| --- | --- | --- | --- | --- |
| 1900 | 20 | C[C@@H]1COCCN1c1cc(-n2c(C(F)F)nc3ccccc32)nc(NCC2CCN(C3CCOCC3)CC2)n1 [Example 37] | 81 | 1.52 |
| 13000 | 8 | FC(F)c1nc2ccccc2n1-c1cc(N2CCOCC2)nc(NCC2CCN([C@H]3CC[C@H](F)CC3)CC2)n1 [Example 43-1, 4-[2-(difluoromethyl)-1H-benzimidazol-1-yl]-N-{[1-(trans-4-fluorocyclohexyl)piperidin-4-yl]methyl}-6-(morpholin-4-yl)pyrimidin-2-amine dihydrochloride] | 73 | 2.1 |
| 5500 | 21 | CC(C)(O)CNC12CCC(CNc3nc(N4CCOCC4)cc(-n4c(C(F)F)nc5ccccc54)n3)(CC1)CC2 [Example 85, 1-({4-[({4-[2-(difluoromethyl)-1H-benzimidazol-1-yl]-6-(morpholin-4-yl)pyrimidin-2-yl}amino)methyl]bicyclo[2.2.2]oct-1-yl}amino)-2-methylpropan-2-ol] |  | 2.6 |
| 4900 | 13 | CN(CC(C)(C)O)C12CCC(CNc3nc(N4CCOCC4)cc(-n4c(C(F)F)nc5ccccc54)n3)(CC1)CC2 [Example 121] |  | 2 |
| 6600 | 4.7 | O=C(CNC1CCCC1)N[C@H]1CC[C@H](Oc2cc(-n3c(C(F)F)nc4ccccc43)nc(N3CCOCC3)n2)CC1 [Example 134] |  | 3.4 |
| 8000 | 3 | O=C(CNC1CCCCC1)N[C@H]1CC[C@H](Oc2cc(-n3c(C(F)F)nc4ccccc43)nc(N3CCOCC3)n2)CC1 [Example 135] |  | 2.5 |
| 6700 | 11 | CCOC(=O)N1CCN(c2ccc(CNc3nc(N4CCOCC4)cc(-n4c(C(F)F)nc5ccccc54)n3)cc2)CC1 [Example 158] |  | 10 |
| 8200 | 4.9 | FC(F)c1nc2ccccc2n1-c1cc(N2CCOCC2)nc(NCC2CCN(C3CCCCC3)CC2)n1 [Example 193] |  | 4.1 |
| 7300 | 3.3 | C[C@@H]1C[C@@H](N2CCC(CNc3nc(N4CCOCC4)cc(-n4c(C(F)F)nc5ccccc54)n3)CC2)C[C@H](C)O1 [Example 224] |  | 1.5 |
| 720 | 34 | COC(=O)N[C@H]1CCN([C@H]2CC[C@H](Nc3nc(N4CCOCC4)cc(-n4c(C(F)F)nc5ccccc54)n3)CC2)C1=O [Example 248, methyl{(3S)-1-[trans-4-({4-[2-(difluoromethyl)-1H-benzimidazol-1-yl]-6-(morpholin-4-yl)pyrimidin-2-yl}amino)cyclohexyl]-2-oxopyrrolidin-3-yl}carbamate] |  | 1.4 |
| 1400 | 48 | COC(=O)N[C@@H]1CCN([C@H]2CC[C@H](Nc3nc(N4CCOCC4)cc(-n4c(C(F)F)nc5ccccc54)n3)CC2)C1=O [Example 441] |  | 1.8 |
| 730 | 31 | CN1CCC(CNc2nc(N3CCOCC3)nc(-n3c(C(F)F)nc4ccccc43)n2)CC1 [Example A4] | 58 |  |
